Results published in patent US8487006B2, “Method of enhancing TGF-β signalling” (Auxagen, Inc., priority 2008, dated 2013).

Tested on: TGF-β1-stimulated Smad2 phosphorylation in Mv1Lu cells
Experiment: TGF-β1-stimulated Smad2 phosphorylation, quantitative Western blot (P-Smad2/Smad2)
Format: cell-based
Details: several concentrations of the inhibitors, 100 pM TGF-β1 for 30 min
Method: (A-I, K) Cells were pretreated with 10 mg/ml β-CD (A, K), 20 LM MDC (B), 40 μM monensin (C), 20 μM TFP (D) and 0.45 M sucrose (K) or several concentrations (as indicated) of β-CD (E), TFP (F), monensin (G), chloroquine (H), dynasore (I), at 37° C. for 1 h. The cells were then stimulated with vehicle only or […] TGF-β1 (A to I) or several concentrations (as indicated) of TGF-β1 (K). After several time periods, as indicated, at 37° C., cell lysates were analysed by 7.5% SDS PAGE followed by Western blot analysis using antibodies to P-Smad2 and Smad2 and chemiluminescence development (a or top) and quantitation by densitometry (b or bottom). The relative level of P-Smad2 was expressed as arbitrary units (A.U.) (A, B, C, D, K) (b). The relative level of P-Smad2 in cells treated with TGF-β alone was taken as 100% of control (E to I, bottom). The data shown is representative of 3 independent experiments. (J) Cells were pretreated with 10 mg/ml β-CD (c,d) at 37° C. for 1 h. The cells were then stimulated with vehicle only (a) or with 100 pM TGF-β (b,d). After 30 min at 37° C. the cells were fixed and subjected to indirect immunofluorescent staining using antibody to P-Smad2. The magnification is 200×. The data shown is representative of 3 independent experiments.
If TGF-β-induced signaling occurs in endosomes, as reported previously^6-15, inhibitors of clathrin-dependent endocytosis would be expected to attenuate TGF-β-stimulated signaling such as Smad2 phosphorylation and nuclear colocalization^4,5. To test this, Mv1Lu cells were pretreated with vehicle only or with clathrin-dependent endocytosis inhibitors at 37° C. for 30 min and then treated with or without 100 pM TGF-β1. After several time periods, the relative levels of P-Smad2 in treated and stimulated cells were analyzed by quantitative Western blot analysis using antibodies to P-Smad2 and Smad2. […] After stimulation of cells with TGF-β1 for 60 min, β-CD, TFP, MDC and monensin enhanced TGF-β1-stimulated Smad2 phosphorylation by ˜1.5-2.5 fold (FIGS. 1Ab, 1Bb, 1Cb, and 1Db). To further characterize the effects of these inhibitors on Smad2 phosphorylation, Mv1Lu cells were pretreated with vehicle only or with several concentrations of the inhibitors at 37° C. for 30 min and then stimulated with 100 pM of TGF-β1. After 30 min at 37° C., cell lysates were subjected to Western blot analysis using antibodies to P-Smad2 and Smad2 followed by quantitation with densitometry. […] To determine the effect of β-CD on TGF-β1-stimulated nuclear localization of P-Smad2, Mv1Lu cells were pretreated with vehicle only or with β-CD (10 mg/ml). After 1 h at 37° C., cells were stimulated with TGF-β1 ([…]) for 30 min. The nuclear localization of P-Smad2 was then analyzed by indirect fluorescent staining.
To define the coated-pit stages that are important in TGF-β1-induced signaling, we treated Mv1Lu cells with hyperosmotic sucrose (0.45 M) or β-CD and examined TGF-β1-stimulated Smad2 phosphorylation in these cells. […] In cells stimulated with 100 pM TGF-β1, hyperosmotic sucrose attenuated Smad2 phosphorylation by ˜60% (FIG. 1Kb). On the other hand, β-CD enhanced TGF-β1-stimulated Smad2 phosphorylation at all concentrations of TGF-β1. It enhanced TGF-β1-stimulated Smad2 phosphorylation by 2-4 fold when compared with the control (treatment without β-CD) (FIGS. 1Ka and 1Kb).

O=C(N/N=C/c1ccc(O)c(O)c1)c1cc2ccccc2cc1O [dynasore]
concentration dependence of the effect on TGF-β1-stimulated Smad2 phosphorylation: enhanced TGF-β1-stimulated Smad2 phosphorylation in a concentration-dependent manner
